Laboratory results from patent US8697081B2, “Method of modulating neovascularization” (The Regents of the University of Michigan, priority 2008, dated 2014).

How the values were obtained:
Type in all cases: cell-based
[1] = test system: Human umbilical vein endothelial cells; test: Nesprin distribution at the nuclear envelope in 3-D fibrin gels; details: VEGF/HGF-stimulated
Description: Physical interactions between cytoskeletal networks and the nucleus are mediated by a family of Klarsicht, ANC-1, Syne homology (KASH) domain-containing proteins. The C-terminal domains of the proteins are embedded within the outer nuclear membrane, where they interact with the inner nuclear membrane via members of the SUN protein family (Crisp et al., 2006. J. Cell Biol., 172: 41-53; Dechat et al., supra; Starr, supra; Stewart et al., supra; Wilhelmsen et al., 2006. J. Cell Biol., 171: 799-810). In turn, SUN proteins span the inner nuclear membrane to establish binding interactions with a scaffold of lamin family members and nuclear pore complexes (Dechat et al., supra; Starr, supra; Stewart et al., supra). To determine whether this interaction plays a role in the nuclear morphology regulation by ECM remodeling, expression of nesprins-1 and 2 (also termed Syne-1 and 2) nesprin-3 was examined in 3-D-embedded endothelial cells. Nesprins-1 and 2 bind F-actin, while nesprin-3 indirectly interacts with intermediate filaments via binding of plectin (Crisp and Burke, 2008. FEBS Lett., 582: 2023-2032; Starr, supra; Stewart et al., supra).

[2] = test system: human endothelial cells; test: Fn matrix assembly by endothelial cells in 3-D fibrin gel, confocal laser microscopy
Procedure: Endothelial cells were isolated from human umbilical cord veins by collagenase digestion and cultured in Medium 199 (Gibco) containing 20% human serum, 50 μg/ml endothelial cell growth supplement (BD Biosciences), 100 U/ml penicillin, and 100 μg/ml streptomycin (Hiraoka et al. 1998. Cell, 95(3): 365-377). For 2-D/3-D culture, endothelial cell monolayers (no later than third passage) were suspended by mild trypsinization and dispersed within or plated atop fibrin (3 mg/ml) or collagen (2.2 mg/ml) gels (prepared as described in Hiraoka, supra, and Hotary et al. 2003. Cell, 114(1): 33-45), and stimulated with a cocktail of growth factors including 100 ng/ml human vascular endothelial growth factor (Genentech), 50 ng/ml human hepatocyte growth factor (Genentech), 10 ng/ml human TGFα (Biosource), 0.5 ng/ml TGFβ1 (R and D Systems), and 100 μg/ml heparin (Sigma). In selected experiments, endothelial cell spheroids were prepared and suspended in 3-D fibrin gels.
The effect of Fn matrix assembly, or lack thereof, on endothelial cell function during neovascularization was assessed. Human serum was depleted of Fn by gelatin-sepharose affinity chromatography (Amersham) and supplemented with either 20 μg/ml of human plasma Fn (Sigma) or FITC-labeled Fn. […]
(Chernousov et al. 1991. J. Biol. Chem., 266(17): 10851-10858; Tomasini-Johansson et al. 2001. J. Biol. Chem., 276(26): 23430-23439; Mao and Schwarzbauer. 2005. Matrix Biol., 24(6): 389-399; and Tomasini-Johansson et al. 2006. Matrix Biol., 25(5): 282-293). […] Cell number in 3-D cultures was determined by hemacytometry after dissolving gels with 2 mg/ml bacterial collagenase (Worthington) while the number of patent tubules was determined in randomly selected cross-sections. Fn matrix assembly and cell morphology were monitored by confocal laser microscopy. To examine cell migration, endothelial cells were embedded in a 100 μl fibrin gel for 2 hours, then placed within a 500 μl gel for 8 days in the presence of Del29, FUD, control IgG, or L8, after which migration from the inner gel was assessed. […]

[3] = test system: human endothelial cells; test: Intracellular nanorheology (bead tracking) of 3-D-embedded endothelial cells
Description: Endothelial cells cultured atop highly malleable surfaces retain a spherical configuration, fail to organize stress fibers, and are unable to exert tractional forces—a phenotype identical to that observed in 3-D-embedded, Fn matrix assembly-incompetent endothelial cells. A cell's internal stiffness is a viscoelastic property governed by cytoskeletal assembly, actin crosslinking, and the production of actomyosin-dependent stress. Internal stiffness changes as a function of the perceived stiffness of the surrounding substratum (Solon et al. 2007. Biophys. J., 93(12): 4453-4461). Therefore, the micromechanical properties of 3-D-embedded endothelial cells were monitored via intracellular nanorheology.
Prior to embedding in the 3-D fibrin matrix, endothelial cells were ballistically microinjected with 100 nm polystyrene beads to circumvent the endocytic pathway and subsequent directed motion of the beads. After 3 days of incubation, the beads dispersed in the cytoplasm and their centroids were tracked with high spatial and temporal resolution using fluorescence microscopy. […] Elastic moduli, which quantify the local resistance of the cytoplasm against small random forces acting on the surface of the beads, were derived from MSD curves to quantify cellular mechanical properties.
In the absence of Fn fibrillogenesis, an impaired ability of embedded endothelial cells to generate myosin-dependent forces and increase cytoplasmic stiffness was predicted to affect both Fn unfolding, as well as the ability of the cells to properly register the mechanical properties of the surrounding substratum (Wu et al. 1995. Cell, 83(5): 715-724; Zhong et al. 1998. J. Cell Biol., 141(2): 539-551; Baneyx et al. 2002. Proc. Natl. Acad. Sci. USA, 99(8): 5139-5143; Discher et al. 2005. Science, 310(5751): 1139-1143; Engler, supra; and Yoneda, supra). As such, the rheologic and functional characteristics of endothelial cells were assessed in the presence of the specific myosin ATPase inhibitor, blebbistatin. […]

CNC(=O)[C@H](Cc1c[nH]c2ccccc12)NC(=O)[C@@H](CC(=O)NO)CC(C)C [GM6001]
nesprin distribution at the nuclear envelope [1]: irregular nesprin distributions

Cc1ccc2c(c1)C(=O)C1(O)CCN(c3ccccc3)C1=N2 (stereo not shown) [blebbistatin]
pericellular Fn matrix assembly ([2]; 2 days, 50 μM blebbistatin): failed to assemble
cytoplasmic stiffness ([3]; 3-D fibrin gel, 50 μM blebbistatin): failed to increase

FUD: 49-residue functional upstream domain of Streptococcus pyogenes F1 adhesion protein, SEQ ID NO: 10; fibronectin fibril assembly inhibitor (KDQSPLAGESGETEYITEVYGNQQNPVDIDKKLPNETGFSGNMVETEDT; Streptococcus pyogenes; Functional Upstream Domain (FUD) of F1 adhesion protein)
Fn matrix assembly (Fn polymerization) ([2]; growth factor cocktail, FUD or Del29 250 nM, L8 or 9D2 100 μg/ml, 70 kDa Fn fragment 75 μg/ml): attenuated
mean square displacement (MSD) of the beads ([3]; 3-D fibrin matrix, 3 days, relative to control cells): significantly increased
elastic modulus of the cytoplasm ([3]; 3-D fibrin matrix, versus control cells, P<0.001): significantly lower
nesprin distribution at the nuclear envelope [1]: irregular nesprin distributions
